Experimental data published in article PMC11148080, “Ru(II)-based complexes containing 2-thiouracil derivatives suppress liver cancer stem cells by targeting NF-κB and Akt/mTOR signaling” (Cell Death Discovery, 2024).
pIC50: −log10 of the molar value. “And” between values parts separate entries of the source, which are not always exact repeats. Equal entries are not always repeated.

Legend:
Assay type in all cases: cell-based, human
[1] = test system: A-375; experiment: Alamar Blue cytotoxicity; conditions: A-375, 72 h
Method: (§1) The Alamar Blue assay was used to measure cell viability, as previously described. Adherent cells were seeded in 96-well plates at a density of 7 × 10^3 cells per well, and suspended cells were seeded at 3 × 10^4 cells per well. Drugs were added to each well after overnight incubation for adherent cells or immediately after seeding for suspension cells, and incubation continued for an additional 72 h. The positive control included doxorubicin (Laboratorio IMA S.A.I.C., Buenos Aires, Argentina). Four hours (for cell lines) or 24 h (for primary cultures) before the end of incubation, 20 μL of resazurin (30 μM) (Sigma‒Aldrich Co. St. Louis, MO, USA) was added to each well. The absorbance at 570 and 600 nm was measured using a SpectraMax 190 microplate reader (Molecular Devices, Sunnyvale, CA, USA).

[2] = test system: A549; experiment: Alamar Blue cytotoxicity; conditions: A549, 72 h
Method: as §1

[3] = test system: CAL 27; experiment: Alamar Blue cytotoxicity; conditions: CAL 27, 72 h
Method: as §1

[4] = test system: DU 145; experiment: Alamar Blue cytotoxicity; conditions: DU 145, 72 h
Method: as §1

[5] = test system: HCT116; experiment: Alamar Blue cytotoxicity; conditions: HCT116, 72 h
Method: as §1

[6] = test system: HSC-3; experiment: Alamar Blue cytotoxicity; conditions: HSC-3, 72 h
Method: as §1

[7] = test system: HepG2; experiment: Alamar Blue cytotoxicity; conditions: HepG2, 72 h
Method: as §1

[8] = test system: Jurkat; experiment: Alamar Blue cytotoxicity; conditions: Jurkat, 72 h
Method: as §1

[9] = test system: KG-1a; experiment: Alamar Blue cytotoxicity; conditions: KG-1a, 72 h
Method: as §1

[10] = test system: MDA-MB-231; experiment: Alamar Blue cytotoxicity; conditions: MDA-MB-231, 72 h
Method: as §1

[11] = test system: NB4; experiment: Alamar Blue cytotoxicity; conditions: NB4, 72 h
Method: as §1

[12] = test system: OVCAR-3; experiment: Alamar Blue cytotoxicity; conditions: OVCAR-3, 72 h
Method: as §1

[13] = test system: PANC-1; experiment: Alamar Blue cytotoxicity; conditions: PANC-1, 72 h
Method: as §1

[14] = test system: SCC-25; experiment: Alamar Blue cytotoxicity; conditions: SCC-25, 72 h
Method: as §1

[15] = test system: SCC-9; experiment: Alamar Blue cytotoxicity; conditions: SCC-9, 72 h
Method: as §1

[16] = test system: SCC4; experiment: Alamar Blue cytotoxicity; conditions: SCC4, 72 h
Method: as §1

[17] = test system: THP-1; experiment: Alamar Blue cytotoxicity; conditions: THP-1, 72 h
Method: as §1

[18] = test system: U-87 MG; experiment: Alamar Blue cytotoxicity; conditions: U-87 MG, 72 h
Method: as §1

[19] = test system: HepG2 cells; experiment: Transwell migration assay; conditions: same concentrations (0.5 μM complex 1, 0.3 μM complex 2), 24 h
Method: Transwell plates were used for the cell migration assay, as previously described. The cells were initially incubated in serum-free media for 24 h. We used uncoated cell culture inserts in 6-well plates ([…]; Corning, USA). The upper chamber received 1.5 mL of serum-free medium, whereas the bottom chamber received 2 mL of medium containing 20% FBS. Cotton swabs were used to remove cells that remained in the top chamber after 24 h. The cells on the bottom surface of the membrane were fixed in 4% paraformaldehyde and stained with 0.5% crystal violet. The cells were imaged and counted using an optical microscope (Leica, DMI8).

`F[P-](F)(F)(F)(F)F.O=c1cc[nH]c([S][Ru+])n1.c1ccc(-c2ccccn2)nc1.c1ccc(P(c2ccccc2)c2ccccc2)cc1.c1ccc(P(c2ccccc2)c2ccccc2)cc1` [Complex 1, trans-[Ru(2TU)(PPh3)2(bipy)]PF6] was tested, and the pIC50 [1] was 5.52, the pIC50 [2] was 4.76 and the pIC50 [3] was 5.58. For the same compound, the pIC50 [4] was 5.12, the pIC50 [5] was 5.32 and the pIC50 [6] was 5.08. It also gave a pIC50 [7] of 5.46, a pIC50 [8] of 5.29 and a pIC50 [9] of 5.32. For the same compound, the pIC50 [10] was 5.58, the pIC50 [11] was 5.32 and the pIC50 [12] was 5.62 and 5.61. For the same compound, the pIC50 [13] was 5.02, the pIC50 [14] was 5.12 and the pIC50 [15] was 5.36. The pIC50 [16] was 5.32, the pIC50 [17] was 5.32 and the pIC50 [18] was 5.45. For the same compound, the “motility, transwell cell migration” value [19] was “reduced motility”.
